Measured values published in patent US4675390A, “2-deoxypentose derivatives” (Eli Lilly and Company, priority 1984, dated 1987).
Converted amounts (≈) assume the structure as drawn.

Experiments:
[1] = test system: CCRF-CEM cell line; assay: growth inhibition of human leukemic cells; assay type: cell-based; settings: read-out: IC50 (concentration giving 50% growth inhibition)
[2] = test system: spontaneously hypertensive rats (SHR); assay: blood pressure lowering in spontaneously hypertensive rats (tailcuff method); assay type: in vivo; settings: 5 mg/kg subcutaneous, 3-5 hours
Text: Certain of the compounds of this invention are also active in lowering the blood pressure of spontaneously hypertensive rats (SHR). For example, β-methyl 2-deoxy-3-phosphocholyl-5-n-hexadecyl-D-ribofuranoside, when administered subcutaneously to SHR at various dose levels, produced the hypotensive effects set forth in Table III below.
*measured by tailcuff method

[3] = test system: X-5563, a plasma cell myeloma; assay: antitumor activity against transplanted X-5563 plasma cell myeloma in mice; assay type: in vivo; settings: daily for 10 days with 3 day delay
Text: Compounds according to formula II above are also active against transplanted tumors in mice. Table II which follows gives the results of testing α-methyl 2-deoxy-3-phosphocholyl-5-n-hexadecyl-D-ribofuranoside against X-5563, a plasma cell myeloma. In the table, column 1 gives the dosage levels, column 2 toxic deaths, column 3, the percent tumor growth inhibition and column 4, the dosage schedule or regimen. Ten mice were given each dosage ip and a group of 20 mice used as controls.

| IC50 [1] | Compound | further results |
| --- | --- | --- |
| 6.4 µg/mL (≈ 12.2 µM) | CCCCCCCCCCCCCCCCOC[C@H]1OC(O)C[C@@H]1OP(=O)([O-])OCC[N+](C)(C)C (stereo partly drawn) [drawing 19 (R = H(OH), R^1 = OH(H)), 2-deoxy-3-phosphocholyl-5-n-hexadecyl-D-ribose] |  |
| 6.2 µg/mL (≈ 11.5 µM) | CCCCCCCCCCCCCCCCOC[C@H]1O[C@@H](OC)C[C@@H]1OP(=O)([O-])OCC[N+](C)(C)C [drawing 19 (R = H, R^1 = MeO), β-methyl 2-deoxy-3-phosphocholyl-5-n-hexadecyl-D-ribofuranoside] | Heart Rate [2]: No effect; Blood pressure effect ([2]; tailcuff method): -20 mmHg |
| 5.2 µg/mL (≈ 9.67 µM) | CCCCCCCCCCCCCCCCO[C@H]1C[C@@H](OC)O[C@@H]1COP(=O)([O-])OCC[N+](C)(C)C [drawing 20 (R = MeO, R^1 = H), Methyl 2-deoxy-3-n-hexadecyl-5-phosphocholyl-D-ribofuranoside] |  |
| 5.3 µg/mL (≈ 9.86 µM) | CCCCCCCCCCCCCCCCOC[C@H]1O[C@H](OC)C[C@H]1OP(=O)([O-])OCC[N+](C)(C)C [drawing 21 (R = MeO, R^1 = H), α-Methyl 2-deoxy-3-phosphocholyl-5-n-hexadecyl-D-xylofuranoside] |  |

More lines, now with the values behind:

| Compound | IC50 [1] | further results |
| --- | --- | --- |
| CCCCCCCCCCCCCCCCOC[C@H]1OCC[C@@H]1OP(=O)([O-])OCC[N+](C)(C)C [drawing 19 (R = H, R^1 = H), 1,2-dideoxy-3-phosphocholyl-5-n-hexadecyl-D-ribofuranose] | 3.7 µg/mL (≈ 7.29 µM) |  |
| CCCCCCCCCCCCCCCCOC[C@H]1O[C@H](OC)C[C@@H]1OP(=O)([O-])OCC[N+](C)(C)C [drawing 19 (R = MeO, R^1 = H), α-methyl 2-deoxy-3-phosphocholyl-5-n-hexadecyl-D-ribofuranoside] | 2.3 µg/mL (≈ 4.28 µM) | Percent inhibition of Tumor growth ([3]; 25 mg/kg ip): 37%; Toxic deaths ([3]; 25 mg/kg ip): 0/10; Percent inhibition of Tumor growth ([3]; 50 mg/kg ip): 61%; Toxic deaths ([3]; 50 mg/kg ip): 2/10 |
| CCCCCCCCCCCCCCCCO[C@H]1CC(O)O[C@@H]1COP(=O)([O-])OCC[N+](C)(C)C (stereo partly drawn) [drawing 20 (R = H(OH), R^1 = OH(H)), 2-Deoxy-3-n-hexadecyl-5-phosphocholyl-D-ribose] | 13.2 µg/mL (≈ 25.2 µM) |  |
| CCCCCCCCCCCCCCCCO[C@H]1CCO[C@@H]1COP(=O)([O-])OCC[N+](C)(C)C [drawing 20 (R = H, R^1 = H), 1,2-Dideoxy-3-n-hexadecyl-5-phosphocholyl-D-ribofuranose] | 3.4 µg/mL (≈ 6.7 µM) |  |
| CCCCCCCCCCCCCCCCO[C@H]1C[C@H](OC)O[C@@H]1COP(=O)([O-])OCC[N+](C)(C)C [drawing 20 (R = H, R^1 = MeO), β-Methyl 2-deoxy-3-n-hexadecyl-5-phosphocholyl-D-ribofuranoside] | < 2.1 µg/mL |  |
| CCCCCCCCCCCCCCCCO[C@H]1CC(=O)O[C@@H]1COP(=O)([O-])OCC[N+](C)(C)C [drawing 20 (R, R^1 = Carbonyl), 2-deoxy-3-n-hexadecyl-5-phosphocholyl-D-ribofuran-1-one] | 6.2 µg/mL (≈ 11.9 µM) |  |
| CCCCCCCCCCCCCCCCOC[C@H]1OCC[C@H]1OP(=O)([O-])OCC[N+](C)(C)C [drawing 21 (R = H, R^1 = H), 1,2-dideoxy-3-phosphocholyl-5-n-hexadecyl-D-xylofuranose] | 6.2 µg/mL (≈ 12.2 µM) |  |
